Measurements taken from ChEMBL document CHEMBL1126757, “Benzoquinazoline inhibitors of thymidylate synthase: enzyme inhibitory activity and cytotoxicity of some 3-amino- and 3-methylbenzo[f]quinazolin-1(2H)-ones” (J Med Chem, 1993).

Target: Thymidylate synthase (Homo sapiens, UniProt P04818)
Assay: not given
Conditions: not given

Chain of Thymidylate synthase (Homo sapiens, UniProt P04818) (P04818 whole entry): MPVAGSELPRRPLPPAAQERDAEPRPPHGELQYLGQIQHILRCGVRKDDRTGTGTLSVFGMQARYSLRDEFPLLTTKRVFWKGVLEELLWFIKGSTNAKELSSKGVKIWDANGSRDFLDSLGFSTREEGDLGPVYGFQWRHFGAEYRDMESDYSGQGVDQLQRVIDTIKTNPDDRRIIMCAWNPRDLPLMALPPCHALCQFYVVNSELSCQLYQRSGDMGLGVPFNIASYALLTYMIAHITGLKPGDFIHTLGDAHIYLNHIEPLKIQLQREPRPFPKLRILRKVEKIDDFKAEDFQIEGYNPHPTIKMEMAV

SMILES | IC50 [µM]
Nc1nc2ccc3cc(Cl)ccc3c2c(=O)[nH]1 | 45.4
Nc1nc2ccc3cccc([N+](=O)[O-])c3c2c(=O)[nH]1 | 2.31
Nc1nc2c(c(=O)[nH]1)-c1cccc(F)c1CC2 | 83.6
Nc1nc2ccc3cc([N+](=O)[O-])cc([N+](=O)[O-])c3c2c(=O)[nH]1 | 145
Nc1nc(O)c2c(cc(CO)c3ccccc32)n1 | 8.6
Nc1nc(O)c2c(ccc3ccc(F)cc32)n1 | 0.5
Nc1ccc2ccc3nc(N)nc(O)c3c2c1 | 0.63
Nc1nc(O)c2c(ccc3ccc(Br)c([N+](=O)[O-])c32)n1 | 0.23
COCc1cc2nc(N)nc(O)c2c2ccccc12 | 15
Nc1nc(O)c2c(ccc3ccc(Br)cc32)n1 | 0.022
Nc1nc2ccc3c(I)cccc3c2c(=O)[nH]1 | 1.31
CCc1ccc2ccc3nc(N)nc(O)c3c2c1 | 0.49
Nc1nc2ccc3c(Br)cccc3c2c(=O)[nH]1 | 8.9
Nc1nc(O)c2c(ccc3cc(N)c(Br)cc32)n1 | 0.34
Nc1nc2ccc3ccccc3c2c(=O)[nH]1 | 1.08
Nc1nc2ccc3cc([N+](=O)[O-])c(Br)cc3c2c(=O)[nH]1 | 3.12

SMILES | IC50 [µM]
Nc1nc2ccc3c(Cl)cccc3c2c(=O)[nH]1 | 26
Nc1nc2ccc3cc(Cl)c(Cl)cc3c2c(=O)[nH]1 | 0.71
Cc1ccc2c(c1)-c1c(O)nc(N)nc1CC2 | 0.72
Nc1nc2ccc3ccc(O)cc3c2c(=O)[nH]1 | 0.48
Nc1nc2ccc3cc(F)cc([N+](=O)[O-])c3c2c(=O)[nH]1 | 34.5
Nc1nc(O)c2c(ccc3c([N+](=O)[O-])c(F)ccc32)n1 | 552
Nc1cc(N)c2c(ccc3nc(N)nc(O)c32)c1 | 7.8
CSc1ccc2ccc3nc(N)nc(O)c3c2c1 | 0.46
CC1Cc2nc(N)nc(O)c2-c2cc(Cl)ccc21 (configuration not stated) | 0.37
Nc1ccc2c(c1)-c1c(nc(N)[nH]c1=O)CC2 | 13.5
CCOc1ccc2ccc3nc(N)nc(O)c3c2c1 | 4.2
Nc1nc(O)c2c(ccc3cc(F)cc(N)c32)n1 | 73.8
Nc1nc2c(c(=O)[nH]1)-c1cc(O)ccc1CC2 | 8.4
Oc1nc(NCc2ccccc2)nc2ccc3c(Br)cccc3c12 | 0.52
Cc1cc2nc(N)nc(O)c2c2cc(Cl)ccc12 | 0.02

More lines, now with the values ahead:

IC50 [µM] | SMILES
7.5 | Cc1cccc2c1ccc1nc(N)nc(O)c12
0.022 | Nc1nc(O)c2c(ccc3ccc(I)cc32)n1
0.12 | C=Cc1ccc2ccc3nc(N)nc(O)c3c2c1
15.2 | Nc1nc(O)c2c(ccc3c(N)cccc32)n1
0.025 | Nc1nc2ccc3ccc(Cl)cc3c2c(=O)[nH]1
6.9 | Cc1cc2nc(N)[nH]c(=O)c2c2ccc(Cl)cc12
25 | Nc1nc2ccc3c(F)cccc3c2c(=O)[nH]1
43.9 | CC1(C)Cc2nc(N)nc(O)c2-c2ccccc21
3.6 | COc1ccc2c(c1)-c1c(O)nc(N)nc1CC2
44 | Nc1nc2ccc3cc(F)ccc3c2c(=O)[nH]1
3.28 | CCSc1ccc2ccc3nc(N)nc(O)c3c2c1
16.8 | Nc1nc2ccc3c(N)c(Br)ccc3c2c(=O)[nH]1
0.36 | Nc1nc(O)c2c(ccc3ccc(Br)c(N)c32)n1
0.54 | O=CNc1nc(O)c2c(ccc3ccc(Br)cc32)n1
7.5 | Nc1ccc2c(ccc3nc(N)nc(O)c32)c1

Target: Thymidylate synthase (Escherichia coli, UniProt C3SWJ7)
Assay: Inhibition against thymidylate synthase (TS) in Escherichia coli
Conditions: read-out: I50

Chain of Thymidylate synthase (Escherichia coli, UniProt C3SWJ7) (C3SWJ7 whole entry): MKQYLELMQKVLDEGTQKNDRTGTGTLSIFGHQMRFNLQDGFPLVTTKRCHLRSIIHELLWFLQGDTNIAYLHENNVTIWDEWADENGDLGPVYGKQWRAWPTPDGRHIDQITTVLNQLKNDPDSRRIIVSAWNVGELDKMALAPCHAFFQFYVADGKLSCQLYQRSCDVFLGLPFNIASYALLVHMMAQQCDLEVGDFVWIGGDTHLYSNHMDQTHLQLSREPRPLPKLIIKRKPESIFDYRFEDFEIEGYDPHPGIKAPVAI

SMILES | IC50 [µM]
Nc1nc2ccc3cccc([N+](=O)[O-])c3c2c(=O)[nH]1 | 9.8
Nc1nc2c(c(=O)[nH]1)-c1cccc(F)c1CC2 | 99
Nc1nc2ccc3cc([N+](=O)[O-])cc([N+](=O)[O-])c3c2c(=O)[nH]1 | 104
Nc1nc(O)c2c(cc(CO)c3ccccc32)n1 | 102
Nc1nc(O)c2c(ccc3ccc(F)cc32)n1 | 2.4
Nc1ccc2ccc3nc(N)nc(O)c3c2c1 | 0.6
Nc1nc(O)c2c(ccc3ccc(Br)cc32)n1 | 0.267
Nc1nc2ccc3c(I)cccc3c2c(=O)[nH]1 | 6.3
CCc1ccc2ccc3nc(N)nc(O)c3c2c1 | 7.7
Nc1nc(O)c2c(ccc3cc(N)c(Br)cc32)n1 | 2.8
Nc1nc2ccc3ccccc3c2c(=O)[nH]1 | 7
Nc1nc2ccc3cc([N+](=O)[O-])c(Br)cc3c2c(=O)[nH]1 | 31
Nc1nc2ccc3cc(Cl)c(Cl)cc3c2c(=O)[nH]1 | 5.4
Cc1ccc2c(c1)-c1c(O)nc(N)nc1CC2 | 5.8
Nc1nc2ccc3ccc(O)cc3c2c(=O)[nH]1 | 1.84
Nc1nc(O)c2c(ccc3c([N+](=O)[O-])c(F)ccc32)n1 | 403
Nc1cc(N)c2c(ccc3nc(N)nc(O)c32)c1 | 5.12
CSc1ccc2ccc3nc(N)nc(O)c3c2c1 | 1.6
CC1Cc2nc(N)nc(O)c2-c2cc(Cl)ccc21 (configuration not stated) | 3.6
Nc1ccc2c(c1)-c1c(nc(N)[nH]c1=O)CC2 | 16.9
Nc1nc(O)c2c(ccc3cc(F)cc(N)c32)n1 | 47.1
Nc1nc2c(c(=O)[nH]1)-c1cc(O)ccc1CC2 | 12
Oc1nc(NCc2ccccc2)nc2ccc3c(Br)cccc3c12 | 0.63
Cc1cc2nc(N)nc(O)c2c2cc(Cl)ccc12 | 0.17

The remaining lines, values ahead:

IC50 [µM] | SMILES
18.1 | Cc1cccc2c1ccc1nc(N)nc(O)c12
0.323 | Nc1nc(O)c2c(ccc3ccc(I)cc32)n1
1.1 | C=Cc1ccc2ccc3nc(N)nc(O)c3c2c1
39 | Nc1nc(O)c2c(ccc3c(N)cccc32)n1
0.52 | Nc1nc2ccc3ccc(Cl)cc3c2c(=O)[nH]1
208 | Nc1nc2ccc3c(F)cccc3c2c(=O)[nH]1
49.6 | CC1(C)Cc2nc(N)nc(O)c2-c2ccccc21
6 | COc1ccc2c(c1)-c1c(O)nc(N)nc1CC2
231 | Nc1nc2ccc3cc(F)ccc3c2c(=O)[nH]1
4.3 | CCSc1ccc2ccc3nc(N)nc(O)c3c2c1
0.64 | Nc1nc(O)c2c(ccc3ccc(Br)c(N)c32)n1

System: SW480
Assay: cells
Conditions: Homo sapiens

SMILES | IC50 [µM]
Nc1nc2ccc3cccc([N+](=O)[O-])c3c2c(=O)[nH]1 | > 100
Nc1nc2c(c(=O)[nH]1)-c1cccc(F)c1CC2 | > 100
Nc1nc(O)c2c(cc(CO)c3ccccc32)n1 | > 100
Nc1nc(O)c2c(ccc3ccc(F)cc32)n1 | 10
Nc1ccc2ccc3nc(N)nc(O)c3c2c1 | 80
Nc1nc(O)c2c(ccc3ccc(Br)c([N+](=O)[O-])c32)n1 | 20
COCc1cc2nc(N)nc(O)c2c2ccccc12 | 60
Nc1nc(O)c2c(ccc3ccc(Br)cc32)n1 | 10
Nc1nc2ccc3c(I)cccc3c2c(=O)[nH]1 | 10
CCc1ccc2ccc3nc(N)nc(O)c3c2c1 | 20
Nc1nc(O)c2c(ccc3cc(N)c(Br)cc32)n1 | 15
Nc1nc2ccc3ccccc3c2c(=O)[nH]1 | 52
Nc1nc2ccc3cc([N+](=O)[O-])c(Br)cc3c2c(=O)[nH]1 | 2.5
Nc1nc2ccc3cc(Cl)c(Cl)cc3c2c(=O)[nH]1 | 20
Cc1ccc2c(c1)-c1c(O)nc(N)nc1CC2 | > 100
Nc1nc2ccc3ccc(O)cc3c2c(=O)[nH]1 | 40
Nc1nc(O)c2c(ccc3c([N+](=O)[O-])c(F)ccc32)n1 | 30
Nc1cc(N)c2c(ccc3nc(N)nc(O)c32)c1 | > 100
Nc1ccc2c(c1)-c1c(nc(N)[nH]c1=O)CC2 | > 100
CCOc1ccc2ccc3nc(N)nc(O)c3c2c1 | 20
Nc1nc(O)c2c(ccc3cc(F)cc(N)c32)n1 | 70
Nc1nc2c(c(=O)[nH]1)-c1cc(O)ccc1CC2 | > 100
Oc1nc(NCc2ccccc2)nc2ccc3c(Br)cccc3c12 | 60
Cc1cc2nc(N)nc(O)c2c2cc(Cl)ccc12 | 2

Other lines, results leading:

IC50 [µM] | SMILES
35 | Cc1cccc2c1ccc1nc(N)nc(O)c12
5 | Nc1nc(O)c2c(ccc3ccc(I)cc32)n1
6 | C=Cc1ccc2ccc3nc(N)nc(O)c3c2c1
> 100 | Nc1nc(O)c2c(ccc3c(N)cccc32)n1
3 | Nc1nc2ccc3ccc(Cl)cc3c2c(=O)[nH]1
30 | Nc1nc2ccc3c(F)cccc3c2c(=O)[nH]1
25 | COc1ccc2c(c1)-c1c(O)nc(N)nc1CC2
50 | Nc1nc2ccc3cc(F)ccc3c2c(=O)[nH]1
20 | Nc1nc2ccc3c(N)c(Br)ccc3c2c(=O)[nH]1
30 | Nc1nc(O)c2c(ccc3ccc(Br)c(N)c32)n1
7 | O=CNc1nc(O)c2c(ccc3ccc(Br)cc32)n1
100 | Nc1ccc2c(ccc3nc(N)nc(O)c32)c1
